Data taken from US5977133A, “Pyridone antibiotic with improved safety profile” (priority 1998, dated 1999).
≈ marks a conversion by molar mass, not a printed value. Entries after “also recorded” stand apart in the source; their conditions may differ. Counter-ions that a name gives are not always drawn. Like-named read-outs stand apart in the source and are kept apart here.

Columns and labels:
[1] = tested on: S. pneumoniae (PenS); assay: In vitro MIC, agar dilution; type: cell-based; conditions: Streptococcus pneumoniae; for MIC: read-out: MIC Range; for MIC50: read-out: MIC50
[2] = tested on: Enterococcus spp. (VanR); assay: In vitro MIC, agar dilution; type: cell-based; conditions: for MIC50: read-out: MIC50; for MIC: read-out: MIC Range
[3] = tested on: E. faecium (VanS); assay: In vitro MIC, agar dilution; type: cell-based; conditions: Enterococcus faecium; for MIC50: read-out: MIC50; for MIC: read-out: MIC Range
[4] = tested on: Escherichia coli JUHL; assay: In vivo efficacy, mouse infection (ED50); conditions: for ED50: Escherichia coli, in Mus musculus, 168 h
[5] = tested on: Streptococcus pneumoniae 6303; assay: In vivo efficacy, mouse infection (ED50); conditions: for ED50: Streptococcus pneumoniae, 6303, in Mus musculus, 168 h
[6] = tested on: ciprofloxacin resistant staphylococcal strains; assay: In vitro MIC, agar dilution (summary in text); type: cell-based; conditions: read-out: MIC90
[7] = tested on: bacteria; assay: In vitro antibacterial activity (overall statement); type: cell-based; conditions: overall statement
[8] = tested on: gram positive and gram negative infections; assay: In vivo efficacy in mice (overall statement); parameters: species or system female CF-1 outbred mice; conditions: for in vivo efficacy in words: gram positive and gram negative infections
[9] = tested on: anaerobes; type: cell-based, B. fragilis, C. difficile, C. perfringens; conditions: words
[10] = tested on: streptococci; assay: In vitro MIC, agar dilution (summary in text); type: cell-based
[11] = tested on: enterococci; assay: In vitro MIC, agar dilution (summary in text); type: cell-based
[12] = tested on: enterobacteriaceae; assay: microbe, parasite or virus in culture; type: cell-based
[13] = tested on: staphylococci; assay: In vitro MIC, agar dilution (summary in text); type: cell-based
[14] = tested on: staphylococcus aureus NTCC 10649; assay: In vivo efficacy, mouse infection (ED50); conditions: for ED50: Staphylococcus aureus, NTCC10649, in Mus musculus, 168 h
[15] = in vivo; conditions: mouse, ip
[16] = S. pneumoniae (PenS), 20 isolates
[17] = Enterococcus spp. (VanR), 21 isolates
[18] = Enterococcus spp. (VanR), 21 isolates, read-out: MIC90
[19] = E. faecium (VanS), 11 isolates, read-out: MIC90

Structure (SMILES) | MIC90 [1] [µg/mL] | MIC [1] [µg/mL] | MIC50 [1, 16] [µg/mL] | MIC50 [2, 17] [µg/mL] | MIC90 [2, 18] [µg/mL] | MIC [2, 17] [µg/mL] | MIC50 ([3]; E. faecium (VanS), 11 isolates) [µg/mL] | MIC90 [3, 19] [µg/mL] | MIC [3] [µg/mL] | ED50 ([4]; po) [mg/kg] | ED50 ([4]; sc) [mg/kg] | ED50 ([5]; po) [mg/kg] | ED50 ([5]; sc) [mg/kg] | ED50 ([14]; po) [mg/kg] | ED50 ([14]; sc) [mg/kg] | LD50 at 504 h [15] [mg/kg] | MIC [1, 16] [µg/mL] | also measured
C[C@@H]1CN(c2c(F)c(N)c3c(=O)c(C(=O)O)cn(C4CC4)c3c2F)C[C@H](C)N1 [Sparfloxacin, sparfloxacin] | 0.5 (≈ 1.27 µM) | 0.12 to 0.5 (≈ 0.306 to 1.27 µM) | 0.25 (≈ 0.637 µM) | 0.5 (≈ 1.27 µM) | 8 (≈ 20.4 µM) | 0.25 to 32 (≈ 0.637 to 81.5 µM) | 1 (≈ 2.55 µM) | 2 (≈ 5.1 µM) |  |  |  |  |  |  |  |  |  | MIC ([3]; E. faecium (VanS), 11 isolates): 1 to 4 µg/mL (≈ 2.55 to 10.2 µM)
N[C@@H]1[C@H]2CN(c3nc4c(cc3F)c(=O)c(C(=O)O)cn4-c3ccc(F)cc3F)C[C@@H]12 [Trovafloxacin, trovafloxacin] | 0.5 (≈ 1.2 µM) | 0.12 to 0.5 (≈ 0.288 to 1.2 µM) | 0.5 (≈ 1.2 µM) | 1 (≈ 2.4 µM) | 1 (≈ 2.4 µM) | 0.06 to 32 (≈ 0.144 to 76.9 µM) | 2 (≈ 4.8 µM) | 2 (≈ 4.8 µM) | 0.25 to 4 (≈ 0.6 to 9.61 µM) |  |  |  |  |  |  |  |  | 
CN[C@@H]1CN(c2c(F)cn3c(=O)c(C(=O)O)cc(C4CC4)c3c2C)CC12CC2 [Example 1, 1-cyclopropyl-8-(7(S)-N-methylamino-5-azaspiro[2.4]heptyl)-7-fluoro-9-methyl-4-oxo-4H-guinolizine-3-carboxylic acid hydrochloride] |  |  |  | 0.5 | 1 | 0.06 to 4 | 0.5 | 1 | 0.12 to 1 | 6.8 | 1.4 | 20 | 12.5 | 5 | 1.5 | 232 |  | efficacy relative to ciprofloxacin ([4]; E. coli, words): comparable; efficacy relative to ciprofloxacin ([5]; S. pneumoniae, words): superior to ciprofloxacin; MIC90 [6]: 0.5 µg/mL; antibacterial activity in words [7]: excellent, broad-spectrum antibacterial activity; in vivo efficacy in words ([8]; hydrochloride): maintaining efficacy versus S. aureus. S. pneumoniae and E. coli; in vivo efficacy in words ([8]; listed as example 1, hydrochloride): broad spectrum efficacy against both gram positive and gram negative infections; oral efficacy in words ([8]; oral, all infections): Oral efficacy was also demonstrated against all infections; in vitro activity relative to reference drugs [9]: significantly more active than ciprofloxacin, trovafloxacin, and sparfloxacin; MIC90 [10]: 0.06 µg/mL; in vitro activity relative to reference drugs ([10]; words): superior to ciprofloxacin, sparfloxacin, and trovafloxacin; MIC90 [11]: 0.25 to 1 µg/mL; in vitro activity relative to reference drugs ([11]; words): superior to ciprofloxacin, sparfloxacin, and trovafloxacin; weight loss in words (mouse, in vivo): no weight loss was observed; relative toxicity / safety in words (single intraperitoneal injection to mice, hydrochloride): significantly less toxic than Example 2 or Example 5; also recorded: less morbidity and mortality than equivalent doses of Example 2 and Example 5; MIC90 [12]: 0.015 to 0.25 µg/mL; in vitro activity relative to reference drugs [12]: equivalent to ciprofloxacin and superior to trovafloxacin and sparfloxacin; MIC90 [13]: 0.03 µg/mL; in vitro activity relative to reference drugs ([13]; words): superior to ciprofloxacin, sparfloxacin, and trovafloxacin; efficacy relative to ciprofloxacin ([14]; S. aureus, words): superior to ciprofloxacin
Cc1c(N2C[C@@H](N)C3(CC3)C2)c(F)cn2c(=O)c(C(=O)O)cc(C3CC3)c12 [Example 5, 1-cyclopropyl-8-(7(S)-amino-5-azaspiror2.41heptvl)-7-fluoro-9-methyl4-oxo-4H-quinolizine-3-carboxylic acid hydrochloride] | 0.06 |  | 0.06 | 0.5 |  |  | 0.25 |  | 0.06 to 0.5 | 5 | 0.6 | 4.2 | 0.9 | 2.3 | 0.9 | 105 | 0.03 to 0.06 | body weight loss (mouse, in vivo, ip, 100 mg/kg): 18%; MIC90 ([2]; Enterococcus): 0.5 µg/mL; MIC ([2]; Enterococcus): 0.25 to 4 µg/mL; MIC90 [3]: 0.25 µg/mL
NC1CCN(c2c(F)cc3c(=O)c(C(=O)O)cn(C4CC4)c3c2Cl)C1 (stereo not shown) [Clinafloxacin, clinafloxacin] | 0.12 (≈ 0.328 µM) |  | 0.06 (≈ 0.164 µM) | 1 (≈ 2.73 µM) | 2 (≈ 5.47 µM) | 0.12 to 8 (≈ 0.328 to 21.9 µM) | 0.5 (≈ 1.37 µM) | 1 (≈ 2.73 µM) | 0.12 to 1 (≈ 0.328 to 2.73 µM) |  |  |  |  |  |  |  | 0.03 to 0.12 (≈ 0.082 to 0.328 µM) | 
